Some test systems named below: OVCAR-5 ovarian; SK-MEL-28 melanoma; T-47D breast; U251 CNS; OVCAR-3 ovarian; A498 renal; NCI-H23 lung; HS 578T breast; UACC-257 melanoma; HL-60(TB) leukemia.
What all share (assay): NCI tumour cell line growth inhibition, 48 h

These results are taken from PubChem BioAssay (NCI).

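Test compounds were applied to cells in 96-well plates for 48 hours at 5 doses. GI50 = concentration required for 50% inhibition of growth. TGI: concentration producing complete growth inhibition.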

Take `Cc1cc(NC(=O)C(=O)Cc2nc3ccccc3s2)ccc1Cl`: the TGI in the assay with OVCAR-5 ovarian, with SK-MEL-28 melanoma, with T-47D breast, in the assay on U251 CNS, in the assay with OVCAR-3 ovarian and in the assay with A498 renal was greater than 100 µM in each case. The TGI in the assay with NCI-H23 lung, in the assay with HS 578T breast and in the assay with UACC-257 melanoma was greater than 100 µM throughout.
With `COc1ccc(OC)c2c3c(ncc12)-c1cc2c(cc1C3)OCO2`, the GI50 with OVCAR-5 ovarian is greater than 100 µM; in the assay on SK-MEL-28 melanoma, greater than 100 µM; in the assay on T-47D breast it was greater than 100 µM; in the assay on U251 CNS, 0.209 µM; with OVCAR-3 ovarian, 26.9 µM; in the assay on HL-60(TB) leukemia, 24.8 µM. The GI50 in the assay on HS 578T breast is 7.01 µM; in the assay with UACC-257 melanoma, 38.5 µM. The TGI was greater than 100 µM with OVCAR-5 ovarian; greater than 100 µM in the assay on SK-MEL-28 melanoma; greater than 100 µM in the assay on T-47D breast; 3.31 µM with U251 CNS; greater than 100 µM in the assay on OVCAR-3 ovarian; greater than 100 µM in the assay on HL-60(TB) leukemia. In addition, the TGI in the assay with HS 578T breast is 62.1 µM; in the assay with UACC-257 melanoma, greater than 100 µM.
For the compound `O=C(/C=C/c1ccc2c(c1)OCO2)c1ccccc(=O)c1O`, the TGI in the assay on SK-MEL-28 melanoma was 90.4 µM; in the assay on T-47D breast, 64.6 µM; in the assay with U251 CNS it was greater than 100 µM; in the assay on OVCAR-3 ovarian, greater than 100 µM; in the assay on A498 renal, greater than 100 µM; in the assay with HS 578T breast it was greater than 100 µM. Moreover, in the assay on UACC-257 melanoma, the TGI was 53.1 µM.
Turning to `CCC1=C[C@H]2CN(CCc3c([nH]c4ccccc34)[C@@](C(=O)OC)(c3cc4c(cc3OC)N(C)[C@H]3[C@@](O)(C(=O)OC)[C@H](OC(C)=O)[C@]5(CC)[C@@H]6C[C@@H]6CN6CC[C@]43[C@@H]65)C2)C1`, the GI50 in the assay with OVCAR-5 ovarian is 0.126 µM; with SK-MEL-28 melanoma, 2.91 µM; in the assay on U251 CNS, 0.0309 µM; in the assay with OVCAR-3 ovarian, 0.0105 µM; with A498 renal, 0.035 µM; in the assay with NCI-H23 lung it was 0.121 µM. Besides, the GI50 was 0.0265 µM in the assay on HL-60(TB) leukemia, 0.053 µM in the assay on HS 578T breast and 3.42 µM with UACC-257 melanoma. The TGI in the assay on OVCAR-5 ovarian was 13.1 µM; in the assay on SK-MEL-28 melanoma, 6.48 µM; with U251 CNS, 3.22 µM; in the assay with OVCAR-3 ovarian it was 2.59 µM; in the assay with A498 renal, 0.183 µM; in the assay on NCI-H23 lung it was greater than 25 µM. The TGI with HL-60(TB) leukemia was 0.14 µM; in the assay on HS 578T breast, 4.16 µM; in the assay on UACC-257 melanoma, 7.33 µM.
In the case of `COc1cc2c(cc1C)NC(=O)/C2=C/c1c(C)nc2sc(C)cn12`, the GI50 was greater than 100 µM in the assay on OVCAR-5 ovarian; greater than 100 µM in the assay with SK-MEL-28 melanoma; 64.4 µM in the assay on T-47D breast; greater than 100 µM with U251 CNS; 74.7 µM in the assay on OVCAR-3 ovarian; 61.7 µM with NCI-H23 lung. The GI50 in the assay with HS 578T breast is 49.8 µM; in the assay with UACC-257 melanoma, 62.3 µM. Moreover, the TGI with OVCAR-5 ovarian, with SK-MEL-28 melanoma, with T-47D breast, in the assay on U251 CNS, in the assay with OVCAR-3 ovarian and with NCI-H23 lung was greater than 100 µM in each case. Also, the TGI with HS 578T breast and in the assay on UACC-257 melanoma was greater than 100 µM throughout.
For `COc1ccc(/C=C/C(=O)c2ccc(NC(=O)CSc3nnc(-c4cc(OC)c(OC)c(OC)c4)o3)cc2)cc1`, the GI50 in the assay on OVCAR-5 ovarian was 1.72 µM; in the assay with SK-MEL-28 melanoma, 1.74 µM; with T-47D breast, 2.05 µM; with U251 CNS, 1.68 µM; with OVCAR-3 ovarian it was 1.78 µM; in the assay with A498 renal it was 11 µM. In addition, the GI50 with NCI-H23 lung is 1.88 µM; in the assay on HS 578T breast, 2.65 µM; with UACC-257 melanoma, 2.16 µM. In addition, the TGI with OVCAR-5 ovarian is 3.3 µM; in the assay with SK-MEL-28 melanoma, 3.4 µM; with T-47D breast it was 5.08 µM; in the assay on U251 CNS, 3.18 µM; with OVCAR-3 ovarian, 3.38 µM; in the assay with A498 renal it was 23.6 µM. Also, the TGI with NCI-H23 lung is 3.97 µM; with HS 578T breast it was 7.76 µM; in the assay on UACC-257 melanoma it was 4.69 µM.
In the case of `C#Cc1ccc(-n2c(/C=C/c3ccc4ccccc4n3)nc3ncccc3c2=O)cc1`, the GI50 is 0.904 µM with SK-MEL-28 melanoma; 0.366 µM with T-47D breast; 0.419 µM in the assay on U251 CNS; 0.317 µM with OVCAR-3 ovarian; 0.138 µM in the assay on A498 renal; 0.774 µM in the assay on NCI-H23 lung. Besides, the GI50 with HL-60(TB) leukemia was 0.297 µM; with UACC-257 melanoma, 0.436 µM. Moreover, the TGI is 2.13 µM with SK-MEL-28 melanoma; 1.28 µM with T-47D breast; 1.59 µM in the assay with U251 CNS; 0.905 µM in the assay on OVCAR-3 ovarian; 0.615 µM in the assay on A498 renal; 2.32 µM in the assay with NCI-H23 lung. Also, the values for the TGI with HL-60(TB) leukemia and in the assay on UACC-257 melanoma were 0.851 µM and 1.92 µM, respectively.
With `CN(C)CCOc1cccc(NC2=C(Cl)C(=O)C(Nc3cccc(OCCN(C)C)c3)=C(Cl)C2=O)c1`, the GI50 in the assay with OVCAR-5 ovarian is 1.84 µM; in the assay with SK-MEL-28 melanoma, 1.03 µM; in the assay with T-47D breast, 0.189 µM; in the assay on U251 CNS, 1.47 µM; with OVCAR-3 ovarian, 0.18 µM; with A498 renal, 1.64 µM. Also, the GI50 with NCI-H23 lung was 0.323 µM; in the assay with HL-60(TB) leukemia it was 0.751 µM; in the assay on UACC-257 melanoma, 0.765 µM. Moreover, the TGI in the assay with OVCAR-5 ovarian turned out to be 3.4 µM; in the assay on SK-MEL-28 melanoma it was 2.49 µM; in the assay with T-47D breast it was 0.453 µM; in the assay with U251 CNS, 2.93 µM; with OVCAR-3 ovarian, 0.334 µM; in the assay with A498 renal it was 3.26 µM. The TGI in the assay with NCI-H23 lung came to 1.35 µM; in the assay with HL-60(TB) leukemia, 2.61 µM; in the assay with UACC-257 melanoma, 2.03 µM.
For the compound `Cn1c2ccccc2c(=S)c2cc(NC(=O)CCCCC(=O)Nc3ccc4c(c3)c(=S)c3ccccc3n4C)ccc21`, the TGI in the assay with OVCAR-5 ovarian, with SK-MEL-28 melanoma, in the assay on T-47D breast, in the assay on U251 CNS, with OVCAR-3 ovarian and with A498 renal was greater than 100 µM throughout. The TGI in the assay on NCI-H23 lung, with HS 578T breast and in the assay with UACC-257 melanoma was greater than 100 µM in each case.
Consider `O=C1/C(=c2\c3ccccc3n3c(=O)c4ccccc4nc23)Nc2ccccc21`, for which the TGI in the assay with OVCAR-5 ovarian, in the assay with SK-MEL-28 melanoma, in the assay with T-47D breast, in the assay on U251 CNS, in the assay with OVCAR-3 ovarian and with A498 renal was greater than 100 µM throughout. The TGI in the assay with NCI-H23 lung is greater than 100 µM; with HS 578T breast it was greater than 85.7 µM; in the assay on UACC-257 melanoma it was greater than 100 µM.
